Source: patent EP2540163A1, “Nematocide N-cyclopropyl-sulfonylamide derivatives” (Bayer CropScience AG, priority 2011, dated 2013)

Legend:
[1] = logP by HPLC on reversed-phase column (C 18), EEC Directive 79/831 Annex V.A8, Method A (0.1% aqueous phosphoric acid / acetonitrile, 43°C); assay type: physicochemical; details: c18 reversed-phase hplc
Protocol: (§1) Calibration was carried out using unbranched alkan-2-ones (having 3 to 16 carbon atoms) with known logP values (determination of the logP values by the retention times using linear interpolation between two successive alkanones).

[2] = logP by HPLC on reversed-phase column (C 18), EEC Directive 79/831 Annex V.A8, Method B (0.1% aqueous formic acid / acetonitrile, 40°C); assay type: physicochemical; details: LogP method B: HPLC reversed-phase C 18, 40°C, 0.1% aqueous formic acid / acetonitrile; for chromatographic logP: c18 reversed-phase hplc
Protocol: as §1

[3] = LogP method A: HPLC reversed-phase C 18, 43°C, 0.1% aqueous phosphoric acid / acetonitrile

Row | Structure (SMILES) | chromatographic logP [1, 3] | chromatographic logP [2] | other results
1 | CCOC(=O)c1[nH]c(C)c(C(=O)N(C2CC2)S(=O)(=O)c2ccc(Cl)cc2Cl)c1C [compound 32] | 3.63 | – | –
2 | Cc1nn(C)c(F)c1C(=O)N(C1(c2ccc(Cl)cc2)CC1)S(=O)(=O)c1cccc(Cl)c1Cl [compound 669] | – | – | chromatographic logP ([1]; LogP method A: HPLC, 43°C, 0.1% aqueous phosphoric acid, acetonitrile, gradient 10% to 90% acetonitrile): 4.44
3 | Cc1occc1C(=O)N(C1CC1)S(=O)(=O)c1cccc(Cl)c1 [compound 3] | 3.27 | – | –
4 | Cc1cc(C)c(C(=O)N(C2CC2)S(=O)(=O)c2cccc(Cl)c2Cl)c(Cl)n1 [compound 650] | 3.57 | – | –
5 | Cc1n[nH]c(C)c1C(=O)N(C1CC1)S(=O)(=O)c1ccc(Cl)c(Cl)c1 [compound 409] | 2.74 | – | –
6 | Cc1nn(C)c(Cl)c1C(=O)N(C1CC1)S(=O)(=O)c1ccc(Cl)c(Cl)c1 [compound 407] | 3.63 | – | –
7 | Cc1nc(C(=O)N(C2CC2)S(=O)(=O)c2ccc(Cl)c(Cl)c2)cs1 [compound 70] | 3.46 | – | –
8 | Cc1nn(C)c(F)c1C(=O)N(C1CC1)S(=O)(=O)c1cc(Cl)sc1Cl [compound 435] | 3.16 | – | –
9 | O=C(C1=C(C(F)(F)F)OCCS1)N(C1CC1)S(=O)(=O)c1ccccc1Cl [compound 653] | 3.2 | – | –
10 | CC(C)c1c(C(=O)N(C2CC2)S(=O)(=O)c2ccc(Cl)cc2Cl)sc(=O)n1C1CC1 [compound 635] | 2.01 | – | –
11 | Cc1nn(C)c(Cl)c1C(=O)N(C1CC1)S(=O)(=O)c1ccc(Cl)c(C(F)(F)F)c1 [compound 406] | 3.76 | – | –
12 | Cc1ccsc1C(=O)N(C1CC1)S(=O)(=O)c1cccc(Cl)c1 [compound 13] | 3.64 | – | –
13 | Cc1nn(C)c(F)c1C(=O)N(C1CC1)S(=O)(=O)c1cnc(Cl)c(Br)c1 [compound 447] | 3.08 | – | –
14 | O=C(c1cccnc1)N(C1CC1)S(=O)(=O)c1ccc(Cl)c(Cl)c1 [compound 639] | 2.91 | – | –
15 | CCc1c(C(=O)N(C2CC2)S(=O)(=O)c2ccc(Cl)cc2Cl)sc(=O)n1C1CC1 [compound 631] | 2.01 | – | –
16 | Cc1nn(C)c(F)c1C(=O)N(C1CC1)S(=O)(=O)c1ccccc1Cl [compound 180] | 2.34 | – | –

Row | Structure (SMILES) | chromatographic logP [1, 3] | chromatographic logP [2] | other results
17 | Cc1c(C(=O)N(C2CC2)S(=O)(=O)c2cccc(Cl)c2)sc(=O)n1Cc1ccccc1 [compound 613] | 2.01 | – | –
18 | CCc1nn(C)c(F)c1C(=O)N(C1CC1)S(=O)(=O)c1ccc(Cl)c(Cl)c1 [compound 378] | – | 3.8 | –
19 | CCc1nn(C)c(F)c1C(=O)N(C1CC1)S(=O)(=O)c1cc(C(F)(F)F)ccc1Cl [compound 384] | – | 3.5 | –
20 | CCOc1nn(C)cc1C(=O)N(C1CC1)S(=O)(=O)c1ccc(Oc2ccc(Cl)cc2Cl)cc1Cl [compound 543] | – | 4.3 | –
21 | CCCCCc1ccc(Oc2ccc(S(=O)(=O)N(C(=O)c3cn(C)nc3OCC)C3CC3)c(Br)c2)cc1 [compound 561] | – | – | LogP [2]: 5,8
22 | COc1nn(C)cc1C(=O)N(C1CC1)S(=O)(=O)c1c(C)nn(C)c1Cl [compound 444] | – | 1.7 | –
23 | Cn1ncc(I)c1C(=O)N(C1CC1)S(=O)(=O)c1cccc(Cl)c1Cl [compound 662] | – | 2.8 | –
24 | COc1nn(C)cc1C(=O)N(C1CC1)S(=O)(=O)c1ccc(Oc2ccc(Cl)c(Cl)c2)cc1Br [compound 478] | – | 4.2 | –
25 | Cc1cc(C(=O)N(C2CC2)S(=O)(=O)c2cccc(Cl)c2Cl)c(C)o1 [compound 5] | – | 3.8 | –
26 | COc1nn(C)cc1C(=O)N(C1CC1)S(=O)(=O)c1csc(Cl)c1Cl [compound 440] | – | 3.1 | –
27 | CCOc1nn(C)cc1C(=O)N(C1CC1)S(=O)(=O)c1ccc(Oc2ccc(OC)c(OC)c2)cc1Cl [compound 527] | – | 3.2 | –
28 | Cc1cc(C(=O)N(C2CC2)S(=O)(=O)c2ccc(Cl)c(Cl)c2Cl)nn1C [compound 75] | – | 3.3 | –
29 | Cc1nn(C)c(Oc2ccc(Cl)cc2)c1C(=O)N(C1CC1)S(=O)(=O)c1ccccc1Cl [compound 261] | – | 3.6 | –
30 | CCOc1nn(C)cc1C(=O)N(C1CC1)S(=O)(=O)c1ccc(Oc2cccc(OC(F)(F)F)c2)c(Cl)c1 [compound 554] | – | 4.5 | –
31 | CCOc1nn(C)cc1C(=O)N(C1CC1)S(=O)(=O)c1ccc(Oc2ccc(Cl)cc2)c(Cl)c1 [compound 545] | – | 4.3 | –
32 | Cn1nc(C2CC2)c(C(=O)N(C2CC2)S(=O)(=O)c2ccc(Cl)c(Cl)c2Cl)c1F [compound 224] | – | 3.9 | –

The next lines start with results.

Row | chromatographic logP [1, 3] | chromatographic logP [2] | Structure (SMILES) | other results
33 | 3.19 | – | Cc1nn(C)c(F)c1C(=O)N(C1CC1)S(=O)(=O)c1ccc(C(F)(F)F)cc1Cl [compound 213] | –
34 | 2.94 | – | Cc1nn(C)c(F)c1C(=O)N(C1CC1)S(=O)(=O)c1ccc(Cl)cc1Cl [compound 186] | –
35 | 3.2 | – | Cc1nc(C(F)(F)F)c(C(=O)N(C2CC2)S(=O)(=O)c2ccccc2Cl)s1 [compound 59] | –
36 | 3.01 | – | CC(C)c1c(C(=O)N(C2CC2)S(=O)(=O)c2ccc(Cl)c(Cl)c2)sc(=O)n1C1CC1 [compound 634] | –
37 | 3.37 | – | Cc1nn(C)c(C)c1C(=O)N(C1CC1)S(=O)(=O)c1ccc(Cl)c(C(F)(F)F)c1 [compound 411] | –
38 | 3.33 | – | Cc1ncc(C(=O)N(C2CC2)S(=O)(=O)c2ccc(Cl)c(Cl)c2)s1 [compound 63] | –
39 | 3.01 | – | Cc1c(C(=O)N(C2CC2)S(=O)(=O)c2ccc(Cl)c(C(F)(F)F)c2)sc(=O)n1Cc1ccccc1 [compound 625] | –
40 | 3.21 | – | Cc1nn(C)c(C)c1C(=O)N(C1CC1)S(=O)(=O)c1ccc(Cl)c(Cl)c1 [compound 412] | –
41 | 1.94 | – | COc1nn(C)cc1C(=O)N(C1CC1)S(=O)(=O)c1ccccc1Cl [compound 211] | –
42 | 2.77 | – | Cc1nn(C)c(F)c1C(=O)N(C1CC1)S(=O)(=O)c1cccc(Cl)c1Cl [compound 210] | –
43 | 4.07 | – | O=C(c1cc(Br)c(Br)s1)N(C1CC1)S(=O)(=O)c1ccccc1Cl [compound 15] | –
44 | 3.12 | – | Cc1ccsc1C(=O)N(C1CC1)S(=O)(=O)c1ccccc1Cl [compound 14] | –
45 | 2.77 | – | Cc1occc1C(=O)N(C1CC1)S(=O)(=O)c1ccccc1Cl [compound 4] | –
46 | 2.97 | – | Cc1c(C(=O)N(C2CC2)S(=O)(=O)c2ccccc2Cl)cnn1-c1ccccc1 [compound 201] | –
47 | 2.93 | – | Cc1cc(C(=O)N(C2CC2)S(=O)(=O)c2ccccc2Cl)nc(Cl)n1 [compound 654] | –
48 | – | 4.2 | COc1nn(C)cc1C(=O)N(C1CC1)S(=O)(=O)c1ccc(Oc2ccc(Br)c(Cl)c2)cc1Br [compound 480] | –
49 | – | 3.8 | CCc1nn(C)c(F)c1C(=O)N(C1CC1)S(=O)(=O)c1c(Cl)sc(Cl)c1Br [compound 437] | –
50 | – | 3.5 | CCOc1nn(C)cc1C(=O)N(C1CC1)S(=O)(=O)c1ccc(Oc2ccc(OC)cc2)cc1Cl [compound 529] | –
51 | – | 4.8 | CCOc1nn(C)cc1C(=O)N(C1CC1)S(=O)(=O)c1ccc(Oc2ccc(Cl)c(C(F)(F)F)c2)c(Cl)c1 [compound 556] | –
52 | – | 3.2 | O=C(c1cccnc1Cl)N(C1CC1)S(=O)(=O)c1cccc(Cl)c1Cl [compound 645] | –

Row | chromatographic logP [1, 3] | chromatographic logP [2] | Structure (SMILES) | other results
53 | – | 3.2 | COc1c(C(=O)N(C2CC2)S(=O)(=O)c2ccc(Cl)c(Cl)c2Cl)c(C)nn1C [compound 230] | –
54 | – | 3 | Cc1nocc1C(=O)N(C1CC1)S(=O)(=O)c1cccc(Cl)c1Cl [compound 599] | –
55 | – | 4.3 | CCOc1nn(C)cc1C(=O)N(C1CC1)S(=O)(=O)c1ccc(Oc2ccc(Br)c(Cl)c2)cc1Cl [compound 544] | –
56 | – | 4.5 | CCOc1nn(C)cc1C(=O)N(C1CC1)S(=O)(=O)c1ccc(Oc2ccc(Br)cc2)c(Cl)c1 [compound 552] | –
57 | – | 3.7 | O=C(c1cccnc1Cl)N(C1CC1)S(=O)(=O)c1ccc(Oc2ccccc2)cc1 [compound 646] | –
58 | – | 2.7 | COc1nn(C)cc1C(=O)N(C1CC1)S(=O)(=O)c1c(Cl)cc(Cl)cc1Cl [compound 461] | –
59 | – | 3.3 | Cn1nc(C(F)(F)F)c(C(=O)N(C2CC2)S(=O)(=O)c2cccc(Cl)c2Cl)c1F [compound 357] | –
60 | – | 4.4 | CCOc1nn(C)cc1C(=O)N(C1CC1)S(=O)(=O)c1ccc(Oc2ccc(C(F)(F)F)cc2)c(Cl)c1 [compound 550] | –
61 | – | 2.8 | Cn1nc(C(F)F)c(C(=O)N(C2CC2)S(=O)(=O)c2ccccc2Cl)c1F [compound 103] | –
62 | – | 4.3 | CCOc1nn(C)cc1C(=O)N(C1CC1)S(=O)(=O)c1ccc(Oc2ccc(C)cc2)c(Cl)c1 [compound 542] | –
63 | – | 3.6 | CC(C)c1nn(C)c(F)c1C(=O)N(C1CC1)S(=O)(=O)c1cccc(Cl)c1Cl [compound 93] | –
64 | – | 3.8 | COc1nn(C)c(Cl)c1C(=O)N(C1CC1)S(=O)(=O)c1ccc(Oc2ccccc2)cc1 [compound 280] | –
65 | – | 3.8 | COc1nn(C)c(Cl)c1C(=O)N(C1CC1)S(=O)(=O)c1ccc(Cl)c(Cl)c1Cl [compound 282] | –
66 | – | 3.8 | O=C(c1ccsc1I)N(C1CC1)S(=O)(=O)c1cccc(Cl)c1Cl [compound 19] | –
67 | – | 4.3 | CCOc1nn(C)cc1C(=O)N(C1CC1)S(=O)(=O)c1ccc(Oc2cccc(C(F)(F)F)c2F)c(Cl)c1 [compound 547] | –
68 | – | 4.1 | Cn1nc(C(F)(F)F)c(C(=O)N(C2CC2)S(=O)(=O)c2ccc(Cl)c(Cl)c2Cl)c1F [compound 108] | –
69 | – | 5 | CCCOc1nn(C)cc1C(=O)N(C1CC1)S(=O)(=O)c1ccc(Oc2ccc(Br)c(Cl)c2)cc1Br [compound 304] | –
70 | – | 2.6 | Cc1nn(C)c(Cl)c1S(=O)(=O)N(C(=O)c1c(C(F)(F)F)nn(C)c1F)C1CC1 [compound 443] | –
71 | – | 3.9 | Cc1nn(C)c(C#N)c1C(=O)N(C1CC1)S(=O)(=O)c1ccc(Cl)c(Cl)c1Cl [compound 228] | –
72 | – | 3.6 | Cc1cnn(C)c1C(=O)N(C1CC1)S(=O)(=O)c1ccc(Cl)c(Cl)c1Cl [compound 659] | –
